Here are results for 3 compounds from patent US20230304010A1, “COMPOSITIONS AND METHODS FOR TREATING VIRAL INFECTIONS” (priority 2020, published 2023).

The test system of data set [1] is SARS-CoV-2 variants (Alpha/Beta/Delta). In kind it is cell-based.
Data set [2] concerns ACE2 : SARS-CoV-2 Spike Alpha (B1.1.7/United Kingdom) variant. In kind it is binding. The following applies: read-out: IC50, Alpha (B117).
Data set [3] deals with ACE2 : SARS-CoV-2 Spike Beta (B1.351/South Africa) variant. In kind it is binding. The following applies: read-out: IC50, Beta (B1312).
Data set [4] concerns ACE2 : SARS-CoV-2 Spike Epsilon (B1429) variant. In kind it is binding.
Data set [5] deals with ACE2 : SARS-CoV-2 Spike Gamma (P1/Brazil) variant. In kind it is binding.
Data set [6] relates to ACE2 : SARS-CoV-2 Spike Delta (B1 617 2/India) variant. In kind it is binding. The following applies: read-out: IC50, Delta (B1617).

Read-outs that look alike come from different tables or passages of the source.

Consider `CC(=O)N[C@@H](CCC(=O)O)C(=O)N[C@@H](CCC(N)=O)C(=O)N[C@@H](C)C(=O)N[C@@H](CCCCN)C(=O)N[C@H](C(=O)N[C@@H](Cc1ccccc1)C(=O)N[C@@H](CC(C)C)C(=O)N[C@@H](CC(=O)O)C(=O)N[C@@H](CCCCN)C(=O)N[C@@H](Cc1ccccc1)C(=O)N[C@@H](CC(N)=O)C(=O)N[C@@H](Cc1c[nH]cn1)C(=O)N[C@@H](CCC(=O)O)C(=O)N[C@@H](C)C(=O)N[C@@H](CCC(=O)O)C(=O)N[C@@H](CC(=O)O)C(=O)N[C@@H](CC(C)C)C(=O)N[C@@H](Cc1ccccc1)C(=O)NCCCCCC(=O)N[C@@H](CC(C)C)C(=O)N[C@@H](Cc1c[nH]c2ccccc12)C(=O)N[C@@H](CCCNC(=N)N)C(=O)N[C@@H](C)C(=O)N[C@@H](CC(C)C)C(=O)N[C@@H](Cc1c[nH]c2ccccc12)C(=O)N[C@@H](CCCNC(=N)N)C(=O)N[C@@H](CC(C)C)C(=O)N[C@@H](Cc1c[nH]c2ccccc12)C(=O)N[C@@H](CCCNC(=N)N)C(=O)N[C@@H](CO)C(=O)N[C@@H](CC(C)C)C(=O)N[C@@H](Cc1c[nH]c2ccccc12)C(=O)N[C@@H](CCCNC(=N)N)C(=O)N[C@@H](CC(C)C)C(=O)N[C@@H](CC(C)C)C(=O)N[C@@H](Cc1c[nH]c2ccccc12)C(=O)N[C@@H](CCCCN)C(N)=O)[C@@H](C)O` [Seq33], for which the “fold stronger anti-SARS-CoV-2 activity than Remdesivir” value in data set [1] worked out at 200 fold. Also, the IC50 in data set [2] amounted to 17.8 ± 9 nM; in data set [3] it was 28.8 ± 10 nM; in data set [4] it was 31.4 ± 9 nM; in data set [5] it was 20.2 ± 5 nM; in data set [6], 25.7 ± 8 nM.

As for “Ac-N*GVEGFNK*Ava-LWRALWRLWRSLWRLLWK-NH2 [Seq17]”, the IC50 in data set [2] was 136 ± 21 nM; in data set [3] it was 75.2 ± 21 nM; in the data set with SARS-CoV-2 Beta variant (read-out: Beta (B1312) IC50) it was 118 ± 15 nM; in the data set with SARS-CoV-2 Beta variant (read-out: IC50, Beta (B1312)), 118 ± 15 nM; in [4] it was 94.7 ± 17 nM; in the data set on SARS-CoV-2 Alpha variant (read-out: Alpha (B117) IC50), 125 ± 24 nM. In addition, the IC50 is 125 ± 24 nM in the data set on SARS-CoV-2 Alpha variant (read-out: IC50, Alpha (B117)); 87.2 ± 20 nM in data set [5]; 48.2 ± 11 nM in data set [6]; 25.7 ± 10 nM with SARS-CoV-2 Delta variant (read-out: Delta (B1617) IC50); 25.7 ± 10 nM with SARS-CoV-2 Delta variant (read-out: IC50, Delta (B1617)).

For “GGCCAAACTGTCACTAAGAAA (chemistry not given here) [DIVC-6]”, the “inhibitory activity against all SARS-CoV2 variant viruses” value in data set [1] was “potent inhibitory activity”. Also, the values for the IC50 with SARS-CoV-2 Beta variant (read-out: Beta (B1312) IC50), in the data set on SARS-CoV-2 Alpha variant (read-out: Alpha (B117) IC50) and with SARS-CoV-2 Delta variant (read-out: Delta (B1617) IC50) were 58.5 nM, 84.5 nM and 91.3 nM, respectively.
